Among the data in US20130137691A1, “DERIVATIVES OF OXADIAZOLE AND PYRIDAZINE, THEIR PREPARATION AND THEIR APPLICATION IN THERAPEUTICS” (SANOFI, priority 2010, published 2013) are IC50 and melting point values, retold here.

Usually melting point stands for the temperature of the solid-liquid transition.

One series addresses T1, DGAT-1 enzyme (Homo sapiens, UniProt O75907).
T1 construct: made in house; host or cells: Sf9 insect cells (baculovirus)
T1 sequence (O75907 1-488): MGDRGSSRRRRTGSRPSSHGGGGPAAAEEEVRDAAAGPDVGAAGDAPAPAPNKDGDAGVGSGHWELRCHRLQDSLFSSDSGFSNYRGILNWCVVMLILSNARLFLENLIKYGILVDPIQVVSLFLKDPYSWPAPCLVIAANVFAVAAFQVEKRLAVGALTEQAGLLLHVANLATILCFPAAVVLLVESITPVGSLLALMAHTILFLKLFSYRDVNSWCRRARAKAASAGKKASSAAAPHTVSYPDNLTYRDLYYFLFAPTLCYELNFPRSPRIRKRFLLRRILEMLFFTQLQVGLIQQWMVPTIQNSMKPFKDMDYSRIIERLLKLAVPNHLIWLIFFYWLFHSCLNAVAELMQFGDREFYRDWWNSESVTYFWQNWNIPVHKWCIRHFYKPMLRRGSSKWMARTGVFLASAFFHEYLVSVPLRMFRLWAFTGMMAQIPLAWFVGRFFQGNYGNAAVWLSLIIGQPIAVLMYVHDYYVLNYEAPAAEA
Put plainly: DGAT-1 enzyme inhibition, phase partitioning assay (PPA), 96-well. The conditions noted are these: recombinant DGAT-1 produced in Sf9 insect cells; 1,2-di(cis-9-octadecenoyl)-sn-glycerol and octanoylCoA; read-out: IC50, concentration that inhibits 50% of the activity of DGAT-1. Type of series: biochemical. How it is done: The recombinant DGAT-1 protein was produced in Sf9 insect cells transfected with a baculovirus. The reaction was carried out by incubating the enzyme in the presence of 1,2-di(cis-9-octadecenoyl)-sn-glycerol and octanoylCoA. The amount of triacylglycerol formed during the reaction is measured. […] The radioactivity is measured using a MicroBeta counter (Perkin Elmer).

The test system of series [1] is triglyceride biosynthesis in Chang liver cells. Briefly: Inhibition of triglyceride biosynthesis in Chang liver cells ([14C] glycerol incorporation). The conditions noted are these: read-out: inhibitory activity on triglyceride biosynthesis, concentration that inhibits 50% of the activity.
Method: These trials consisted in measuring the in vitro inhibitory activity of the compounds of the invention on a cell test.
Chang liver cells at 80% confluence are detached with trypsin-EDTA, 4 ml per 175 cm^2 flask. After centrifugation at 1300×g for 5 minutes, the cell pellet is washed once with PBS and then resuspended in whole medium. The number of cells and their viability are determined on Mallassez cells via the exclusion method with trypan blue.
150 000 cells are inoculated per well into a 24-well plate for a minimum of 3 h in DMEM medium 4.5 g/l of glucose supplemented with 10% FCS and with antibiotics, and are maintained at 37° C. in an incubator with CO2 (5%).
After 3 h, the cells have adhered, the medium is removed and replaced overnight with DMEM medium 4.5 g/l of glucose with 2% of BSA/oleate.
Next, the cell membranes are destroyed by sonication on a water bath, for 30 minutes. […] The radioactivity is measured using a Flo One C625TR machine (Perkin-Elmer).
The inhibitory activity on triglyceride biosynthesis is given by the concentration that inhibits 50% of the activity.

Each structure is given as a SMILES string.

For the compound `O=C(O)CC1CCC(c2ccc(C(=O)Nc3ccc(Cc4ccccc4)nn3)cc2)CC1` (stereo not drawn) [Compound 3, {4-[4-(6-benzylpyridazin-3-ylcarbamoyl)phenyl]cyclohexyl}acetic acid], the IC50 on DGAT-1 enzyme came to 890 nM. In turn, `O=C(Nc1nc(Cc2ccccc2)no1)c1ccc(C2CCC(C3CC3C(=O)O)CC2)cc1` (stereo not drawn) [Compound 3b, trans-2-{4-[4-(3-benzyl[1.2.4]oxadiazol-5-ylcarbamoyl)phenyl]cyclohexyl}cyclopropanecarboxylic acid] displayed a melting point of 187 °C. In addition, the IC50 on DGAT-1 enzyme amounted to 742 nM. The matching figures for `O=C(O)/C=C/[C@H]1CC[C@H](c2ccc(C(=O)Nc3nc(Cc4ccccc4)no3)cc2)CC1` [Compound 3c, (E)-3-{4-[4-(3-benzyl[1.2.4]oxadiazol-5-ylcarbamoyl)phenyl]cyclohexyl}acrylic acid]: 210 °C and 2210 nM. With `O=C(O)CC[C@H]1CC[C@H](c2ccc(C(=O)Nc3nc(Cc4ccccc4)no3)cc2)CC1` [Compound 3d, trans-3-{4-[4-(3-benzyl[1.2.4]oxadiazol-5-ylcarbamoyl)phenyl]cyclohexyl}propionic acid], the melting point amounted to 193 °C. Moreover, the IC50 on DGAT-1 enzyme was found to be 927 nM. On to `O=C(Nc1nc(C2(c3ccccc3)CC2)no1)c1ccc(O[C@H]2CC[C@@H](C(=O)O)CC2)cc1` [Compound 6, cis-4-{4-[3-(1-phenylcyclopropyl)[1.2.4]oxadiazol-5-ylcarbamoyl]phenoxy}-cyclohexanecarboxylic acid], for which the melting point lay within 215 to 222 °C. At DGAT-1 enzyme, the IC50 was 3760 nM.

The compound `CC(C)(c1ccccc1)c1noc(NC(=O)c2ccc(O[C@H]3CC[C@@H](C(=O)O)CC3)cc2)n1` [Compound 7] yielded a melting point of 250 to 255 °C. Further, the IC50 at DGAT-1 enzyme came out at 5700 nM. `O=C(Nc1nc(COc2ccccc2)no1)c1ccc(O[C@H]2CC[C@@H](C(=O)O)CC2)cc1` [Compound 8, cis-4-[4-(3-phenoxymethyl[1.2.4]oxadiazol-5-ylcarbamoyl)phenoxy]cyclohexanecarboxylic acid] yielded a melting point of 210 to 212 °C. Besides, the IC50 on DGAT-1 enzyme was determined as 94 nM. In addition, the IC50 in series [1] stood at 319 nM. As for `O=C(Nc1ccc(NC2CCCC2)nn1)c1ccc(O[C@H]2CC[C@@H](C(=O)O)CC2)cc1` [Compound 9, cis 4-[4-(6-cyclopentylaminopyridazin-3-ylcarbamoyl)phenoxy]-cyclohexanecarboxylic acid], the IC50 at DGAT-1 enzyme was 51 nM. In turn, `O=C(Nc1nc(Cc2ccccc2)no1)c1ccc(O[C@H]2CC[C@@H](C(=O)O)CC2)nc1` [Compound 10, cis-4-[5-(3-benzyl[1.2.4]oxadiazol-5-ylcarbamoyl)pyridin-2-yloxy]-cyclohexanecarboxylic acid] yielded a melting point of 205 to 210 °C. For the same compound, at DGAT-1 enzyme, the IC50 turned out to be 81 nM. The matching figures for `O=C(Nc1ccc(Nc2ccccc2)nn1)c1ccc(O[C@H]2CC[C@@H](C(=O)O)CC2)cc1` [Compound 11, cis-4-[4-(6-phenylaminopyridazin-3-ylcarbamoyl)phenoxy]cyclohexanecarboxylic acid]: 259 to 261 °C and 5910 nM. Compound `COc1ccc(-c2ccc(NC(=O)c3ccc(O[C@H]4CC[C@@H](C(=O)O)CC4)cc3)nn2)cc1` [Compound 12, cis-4-{4-[6-(4-methoxyphenyl)pyridazin-3-ylcarbamoyl]phenoxy}-cyclohexanecarboxylic acid] came in with a melting point of 319 to 322 °C. Besides, the IC50 on DGAT-1 enzyme was 7180 nM.
